Results as given in ChEMBL document CHEMBL4513141, “CO-ADD screening of NIH (USA) - Clinical Collection” (2021).
Values after ≈ are worked out from the molar mass of the structure shown. Structures can show the parent of a compound that is named as a salt.

Legend:
HEK293 = experiment: cells; assay type: functional, Homo sapiens, ATCC CRL1573; conditions: Homo sapiens, ATCC CRL1573, HEK293; ASSAY_TEST Inhibition of Cell Viability; detection method Resazurin; Fluorescence (ex560/em590); MEDIA DMEM with 10% FBS; plate type 384well; TC; CORNING #3712; time 18 hr
Staphylococcus aureus = experiment: microbe, parasite or virus in culture; conditions: ATCC 43300, 18 h, ASSAY_TEST Inhibition of Bacterial Growth, detection method Absorption (OD600), MEDIA CAMHB, plate type 384well, NBS, CORNING #3640
Description: Antibacterial activity against Staphylococcus aureus MRSA ATCC 43300 (CO-ADD:GP_020); MIC in CAMBH media, using NBS plates, by OD(600)

Escherichia coli = experiment: microbe, parasite or virus in culture; conditions: ATCC 25922, 18 h, ASSAY_TEST Inhibition of Bacterial Growth, detection method Absorption (OD600), MEDIA CAMHB, plate type 384well, NBS, CORNING #3640
Description: Antibacterial activity against Escherichia coli ATCC 25922 (CO-ADD:GN_001); MIC in CAMBH media using NBS plates, by OD(600)

Klebsiella pneumoniae = experiment: microbe, parasite or virus in culture; conditions: ATCC 700603, 18 h, ASSAY_TEST Inhibition of Bacterial Growth, detection method Absorption (OD600), MEDIA CAMHB, plate type 384well, NBS, CORNING #3640
Description: Antibacterial activity against Klebsiella pneumoniae MDR ATCC 70063 (CO-ADD:GN_003); MIC in CAMBH media using NBS plates, by OD(600)

Pseudomonas aeruginosa = experiment: microbe, parasite or virus in culture; conditions: ATCC 27853, 18 h, ASSAY_TEST Inhibition of Bacterial Growth, detection method Absorption (OD600), MEDIA CAMHB, plate type 384well, NBS, CORNING #3640
Description: Antibacterial activity against Pseudomonas aeruginosa ATCC 27853 (CO-ADD:GN_042); MIC in CAMBH media using NBS plates, by OD(600)

Acinetobacter baumannii = experiment: microbe, parasite or virus in culture; conditions: ATCC 19606, 18 h, ASSAY_TEST Inhibition of Bacterial Growth, detection method Absorption (OD600), MEDIA CAMHB, plate type 384well, NBS, CORNING #3640
Description: Antibacterial activity against Acinetobacter baumannii ATCC 19606 (CO-ADD:GN_034); MIC in CAMBH media using NBS plates, by OD600

Candida albicans = experiment: microbe, parasite or virus in culture; conditions: ATCC 90028, ASSAY_TEST Inhibition of Fungal Growth, detection method Absorption (OD530), plate type 384well, NBS, CORNING #3640
Description: Antifungal activity against Candida albicans ATCC 90028 (CO-ADD:FG_001); MIC in YNB media using NBS plates, by OD630

Description for Cryptococcus neoformans: Antifungal activity against Cryptococcus neoformans H99 ATCC 208821 (CO-ADD:FG_002); MIC in YNB media using NBS plates, by Resazurin OD(600-570)

MIC (Cryptococcus neoformans) [µM] | MIC (Staphylococcus aureus) [µM] | MIC (Escherichia coli) [µM] | MIC (Klebsiella pneumoniae) [µM] | MIC (Pseudomonas aeruginosa) [µM] | MIC (Acinetobacter baumannii) [µM] | MIC (Candida albicans) [µM] | Structure (SMILES) | CC50 (HEK293) [µM]
> 10 | 1.25 | 0.156 | 5 | 1.25 | 10 | > 10 | CCn1cc(C(=O)O)c(=O)c2cc(F)c(N3CCN(C)CC3)cc21 [PEFLOXACIN MESYLATE] | > 10
> 10 | > 10 | 2.5 (≈ 1.13 µg/mL) | > 10 | > 10 | > 10 | > 10 | C=CC1=C(C(=O)O)N2C(=O)[C@@H](NC(=O)/C(=N/OCC(=O)O)c3csc(N)n3)[C@H]2SC1 | > 10
> 10 | 2.5 (≈ 0.909 µg/mL) | 1.25 (≈ 0.454 µg/mL) | > 10 | 10 (≈ 3.63 µg/mL) | > 10 | > 10 | CN1CCN(c2c(F)cc3c(=O)c(C(=O)O)cn4c3c2SCC4)CC1 | > 10
> 10 | 5 (≈ 1.24 µg/mL) | > 10 | > 10 | > 10 | > 10 | > 10 | CCc1nc(N)nc(N)c1-c1ccc(Cl)cc1 [PYRIMETHAMINE] | > 10
10 | > 10 | > 10 | > 10 | > 10 | > 10 | 2.5 | O=C(O)C[C@H](O)C[C@H](O)/C=C/c1c(C2CC2)nc2ccccc2c1-c1ccc(F)cc1 [PITAVASTATIN CALCIUM] | > 10
> 10 | 5 (≈ 1.37 µg/mL) | 5 (≈ 1.37 µg/mL) | > 10 | > 10 | > 10 | > 10 | COc1cc(C)c(Cc2cnc(N)nc2N)cc1OC [ORMETOPRIM] | > 10
> 10 | > 10 | > 10 | > 10 | > 10 | > 10 | > 10 | COc1cc(NC(C)CCCN)c2ncccc2c1 (configuration not stated) [PRIMAQUINE PHOSPHATE] | > 10
> 10 | ≤ 0.0781 | 10 (≈ 2.46 µg/mL) | 5 (≈ 1.23 µg/mL) | > 10 | > 10 | > 10 | O=c1[nH]c(=O)n(C2CC(O)C(CO)O2)cc1F (configuration not stated) | 2.37
> 10 | > 10 | > 10 | > 10 | > 10 | > 10 | > 10 | COC(=O)Nc1nc2cc(C(=O)c3ccc(F)cc3)ccc2[nH]1 [FLUBENDAZOLE] | 7.02
> 10 | > 10 | > 10 | > 10 | > 10 | > 10 | > 10 | CCOC(=O)CCC(=O)OC1C(OC2C(C)C(OC3CC(C)(OC)C(O)C(C)O3)C(C)C(=O)OC(CC)C(C)(O)C(O)C(C)C(=O)C(C)CC2(C)O)OC(C)CC1N(C)C (configuration not stated) | > 10
> 10 | > 10 | 10 (≈ 2.44 µg/mL) | > 10 | > 10 | > 10 | > 10 | Nc1ncn([C@@H]2O[C@H](CO)[C@@H](O)[C@H]2O)c(=O)n1 [AZACITIDINE] | > 10
> 10 | 0.625 (≈ 0.199 µg/mL) | ≤ 0.0781 | 1.25 (≈ 0.398 µg/mL) | 1.25 (≈ 0.398 µg/mL) | 2.5 (≈ 0.796 µg/mL) | > 10 | C[C@H]1COc2c(C3(N)CC3)c(F)cc3c(=O)c(C(=O)O)cn1c23 [PAZUFLOXACIN] | > 10
> 10 | > 10 | > 10 | > 10 | > 10 | > 10 | > 10 | CN(C)[C@@H]1C(O)=C(C(N)=O)C(=O)[C@@]2(O)C(O)=C3C(=O)c4c(O)cccc4[C@@](C)(O)[C@H]3C[C@@H]12 [TETRACYCLINE] | > 10
> 10 | 10 | > 10 | > 10 | > 10 | > 10 | > 10 | COc1cccc2c1C(=O)c1c(O)c3c(c(O)c1C2=O)C[C@@](O)(C(=O)CO)C[C@@H]3O[C@H]1C[C@H](N)[C@H](O)[C@H](C)O1 [DOXORUBICIN HYDROCHLORIDE] | > 10
> 10 | ≤ 0.0781 | ≤ 0.0781 | 1.25 | 0.312 | 0.625 | > 10 | NC1CCN(c2nc3c(cc2F)c(=O)c(C(=O)O)cn3-c2ccc(F)cc2F)C1 (configuration not stated) [TOSUFLOXACIN TOSYLATE] | > 10
> 10 | ≤ 0.0781 | 5 (≈ 4.24 µg/mL) | > 10 | 0.156 (≈ 0.132 µg/mL) | 10 (≈ 8.47 µg/mL) | > 10 | CO[C@H]1/C=C/O[C@@]2(C)Oc3c(C)c(O)c4c(c3C2=O)C2=NC3(CCN(CC(C)C)CC3)NC2=C(NC(=O)/C(C)=C\C=C\[C@H](C)[C@H](O)[C@@H](C)[C@@H](O)[C@@H](C)[C@H](OC(C)=O)[C@@H]1C)C4=O [RIFABUTIN] | > 10
> 10 | > 10 | > 10 | > 10 | > 10 | > 10 | > 10 | COc1ccc2[nH]c([S+]([O-])Cc3ncc(C)c(OC)c3C)nc2c1 (configuration not stated) [OMEPRAZOLE MAGNESIUM] | > 10
> 10 | 2.5 (≈ 0.843 µg/mL) | > 10 | > 10 | > 10 | > 10 | > 10 | CC(=O)NC[C@H]1CN(c2ccc(N3CCOCC3)c(F)c2)C(=O)O1 [LINEZOLID] | 4.46

Structure (SMILES) | MIC (Cryptococcus neoformans) [µM] | MIC (Staphylococcus aureus) [µM] | MIC (Escherichia coli) [µM] | MIC (Klebsiella pneumoniae) [µM] | MIC (Pseudomonas aeruginosa) [µM] | MIC (Acinetobacter baumannii) [µM] | MIC (Candida albicans) [µM] | CC50 (HEK293) [µM]
CC(=O)N1CCN(c2ccc(OCC3COC(Cn4ccnc4)(c4ccc(Cl)cc4Cl)O3)cc2)CC1 (configuration not stated) [KETOCONAZOLE] | 2.5 (≈ 1.33 µg/mL) | > 10 | > 10 | > 10 | > 10 | > 10 | 0.156 (≈ 0.0831 µg/mL) | > 10
CCn1cc(C(=O)O)c(=O)c2ccc(C)nc21 [NALIDIXIC ACID] | > 10 | > 10 | > 10 | > 10 | > 10 | > 10 | > 10 | > 10
Clc1ccc(COC(Cn2ccnc2)c2ccc(Cl)cc2Cl)c(Cl)c1 (configuration not stated) [MICONAZOLE NITRATE] | 0.625 | > 10 | > 10 | > 10 | > 10 | > 10 | ≤ 0.0781 | > 10
CCn1cc(C(=O)O)c(=O)c2cc(F)c(N3CCNCC3)cc21 [NORFLOXACIN] | > 10 | 5 (≈ 1.6 µg/mL) | 0.625 (≈ 0.2 µg/mL) | 10 (≈ 3.19 µg/mL) | > 10 | 5 (≈ 1.6 µg/mL) | > 10 | > 10
c1ccc(-c2ccc(C(c3ccccc3)n3ccnc3)cc2)cc1 (configuration not stated) [BIFONAZOLE] | 10 (≈ 3.1 µg/mL) | > 10 | > 10 | > 10 | > 10 | > 10 | > 10 | > 10
CC(C)n1c(/C=C/C(O)CC(O)CC(=O)O)c(-c2ccc(F)cc2)c2ccccc21 (configuration not stated) [FLUVASTATIN] | > 10 | > 10 | > 10 | > 10 | > 10 | > 10 | 5 (≈ 2.06 µg/mL) | > 10
